For one data set, the target named is human S1P5 (EDG-8) (Homo sapiens, UniProt Q9H228). The experiment in a line: S1P receptor agonist activity by monitoring intracellular calcium concentration (S1P5). As to conditions: for S1P5 receptor agonist activity: CHO cells overexpressing human S1P5, intracellular calcium, S1P = 100%; for balance of S1P5 receptor agonist activity with respect to S1P1 receptor (selectivity): comparison of agonist activities on S1P1 and S1P5. The data set is classed as cell-based. The method, then: (§1) Chinese hamster ovary (CHO) cells in which human S1P1 (EDG-1) or human S1P5 (EDG-8) genes were overexpressed were cultured in Ham's F-12 medium containing 10% FBS (fetal bovine serum), penicillin/streptomycin, and geneticin (0.25 mg/mL). The medium was changed one day before the calcium assay was performed and on the day of the assay. Four hours after medium exchange, medium was removed and washed once with phosphate buffered saline. 0.05% Trypsin EDTA was added thereto to exfoliate the cells, and then a medium was added to recover the cells. The collected cell suspension was centrifuged to remove the supernatant, and suspended in phosphate buffered saline to count the number of cells. The cells were suspended in a Hanks solution containing Calcium 6 Assay Reagent (manufactured by Molecular Devices), 20 mM HEPES and 2.5 mM Probenecid so as to be 1.1×10^6 cells/mL, and incubated at 37° C. for about 1 hour. Thereafter, the supernatant was removed by centrifugation, and the cells were suspended in a Hanks solution containing 20 mM HEPES, 2.5 mM Probenecid and 0.1% BSA so as to be 2.2×10^6 cells/mL. The suspension was seeded in a 96 well plate at 80 μL/well. A plate was set in a fluorescent drug screening system (FDSS6000), Compound I or a comparative compound, and S1P were sequentially added, and an increase in intracellular calcium concentration before and after addition was measured at an excitation wavelength of 480 nm and a fluorescence wavelength of 540 nm. The increase in intracellular calcium concentration was evaluated by signal intensity at a fluorescence wavelength, and the agonist activity of each compound was calculated with the signal intensity when S1P was added instead of the compound as 100% activity.
On the technique in general: Calcium assays in cells follow changes in intracellular calcium, usually with a dye or a luminescent sensor.

A further data set addresses human S1P1 (EDG-1) (Homo sapiens, UniProt P21453). Description: S1P receptor agonist activity by monitoring intracellular calcium concentration (S1P1). It is filed as cell-based. As to conditions: CHO cells overexpressing human S1P1, intracellular calcium, S1P = 100%. The method, then: as §1
Data set [1] can be described thus: Measurement of clearance in rats. Conditions: male SD rats, fasted, tail-intravenous administration, plasma. The data set is classed as in vivo, rat. The procedure:
A solution of Compound I was tail-intravenously administered to male SD rats under fasted conditions. After administration, rats were retained by a manual method at regular time intervals, and blood was collected from the jugular vein with sodium heparin.
The blood was centrifuged at 10,000 g, 3 min, 4° C. to obtain plasma. Concentration of Compound I in the plasma was measured by LC/MS/MS. Clearance was calculated from the plasma concentration transition using pharmacokinetic analysis software Phoenix WinNonlin (Certara USA, Inc.).

The test system of data set [2] is mouse experimental autoimmune encephalomyelitis model. The experiment in a line: Effectiveness in mouse experimental autoimmune encephalomyelitis model. The data set is classed as in vivo. Conditions: female C57BL/J mice, MOG35-55 immunization, oral once a day for 30 days. The procedure: Female C57BL/J mice (Charles River Laboratories Japan, Inc., age at start of experiment: 7 or 8 weeks of age) were used. Myelin Oligodendrocyte Glycoprotein [sequence 35-55 […] (AnaSpec, Inc., hereinafter MOG35-55)] was dissolved in physiological saline (Otsuka Pharmaceutical Factory, Inc.) to prepare a 2 mg/mL solution. The 2 mg/mL solution of MOG35-55 and an equal amount of FCA H37Ra (Difco Laboratories) were mixed to prepare an emulsion, and the emulsion was used as an inducing agent. Immunization was performed by subcutaneously administering 0.2 mL of the inducing agent into the mouse flank using a glass syringe equipped with a 26G injection needle. […]
After dividing into groups, administration of a test substance (Compound I), a positive control compound (FTY720; fingolimod), or a vehicle (water for injection) was started on the same day, and each test substance was repetitively orally administered once a day for 30 days from the day before the immunization to day 28 of immunization. The amount of the solution to be administered was calculated based on the individual body weight on the day of administration. […]

Data set [3] in a line: Chemical stability test (residual rate by HPLC after storage). The data set is classed as physicochemical. As to conditions: vs sample stored at −20° C. The method, then: Stability of the salts and/or crystal forms of the present invention was studied under the storage conditions of Condition 1 or Condition 2. After storage, the residual rate (%) of the stored sample under each condition was calculated by HPLC based on the area percentage of the sample stored at −20° C.
• Condition 1 60° C.: 1 month: pulverized • Condition 2 80° C.: 1 week: unpulverized
Comparison object of each sample was stored at −20° C.

Where [4] appears, read: Condition 1: 60° C.: 1 month: pulverized.
Where [5] appears, read: Condition 2: 80° C.: 1 week: unpulverized.

Chain of human S1P1 (EDG-1) (P21453 whole entry): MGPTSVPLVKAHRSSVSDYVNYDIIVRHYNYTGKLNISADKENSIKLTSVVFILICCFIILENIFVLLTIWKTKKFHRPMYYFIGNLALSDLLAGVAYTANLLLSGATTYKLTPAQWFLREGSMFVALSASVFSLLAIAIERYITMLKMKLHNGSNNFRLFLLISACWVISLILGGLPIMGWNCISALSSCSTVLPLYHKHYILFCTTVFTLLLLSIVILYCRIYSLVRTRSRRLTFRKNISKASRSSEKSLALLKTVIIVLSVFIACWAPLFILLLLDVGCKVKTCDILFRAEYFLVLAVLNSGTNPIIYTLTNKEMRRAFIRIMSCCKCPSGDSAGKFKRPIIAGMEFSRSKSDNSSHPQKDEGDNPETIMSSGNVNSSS
Chain of human S1P5 (EDG-8) (Q9H228 whole entry): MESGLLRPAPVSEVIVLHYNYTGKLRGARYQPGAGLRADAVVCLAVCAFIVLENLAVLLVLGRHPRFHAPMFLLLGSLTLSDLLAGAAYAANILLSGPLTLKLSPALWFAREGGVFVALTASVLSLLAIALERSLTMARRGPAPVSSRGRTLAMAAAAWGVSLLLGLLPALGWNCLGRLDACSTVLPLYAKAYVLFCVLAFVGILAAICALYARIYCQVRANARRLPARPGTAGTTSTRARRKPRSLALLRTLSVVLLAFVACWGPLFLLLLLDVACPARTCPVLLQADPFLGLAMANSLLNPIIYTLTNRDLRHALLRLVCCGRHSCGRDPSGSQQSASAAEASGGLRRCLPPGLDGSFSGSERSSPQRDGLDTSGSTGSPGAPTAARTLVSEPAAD

Take `CCCCCCCCOc1ccc2c(c1)CCC(CN1CC(C(=O)O)C1)=C2C.Cl` [Comparative Compound A, 1-{[1-methyl-6-(octyloxy)-3,4-dihydro-2-naphthalenyl]methyl}-3-azetidine carboxylic acid hydrochloride]: at human S1P5 (EDG-8), the “S1P5 receptor agonist activity” value was “had both S1P1 and S1P5 receptor agonist activities”; the “balance of S1P5 receptor agonist activity with respect to S1P1 receptor (selectivity)” value (“balance … (selectivity)” for short) is “S1P1 receptor agonist activity being stronger than S1P5 receptor agonist activity”. Also, on human S1P1 (EDG-1), the “S1P1 receptor agonist activity” value was “had both S1P1 and S1P5 receptor agonist activities”.
For the molecule `CCCc1ccc(COc2ccc3c(c2)CCC(CN2CC(C(=O)O)C2)=C3C)c(OC)c1` [Comparative Compound B, 1-({6-[(2-methoxy-4-propylbenzyl)oxy]-1-methyl-3,4-dihydro-2-naphthalenyl}methyl)-3-azetidine carboxylic acid], on human S1P5 (EDG-8), the “S1P5 receptor agonist activity” value is “had both S1P1 and S1P5 receptor agonist activities”; the “balance … (selectivity)” value was “S1P1 receptor agonist activity being stronger than S1P5 receptor agonist activity”. Further, at human S1P1 (EDG-1), the “S1P1 receptor agonist activity” value was “had both S1P1 and S1P5 receptor agonist activities”.
Turning to `COc1ccc2c(c1)C[C@H](C)C(CN1CC(F)(C(=O)O)C1)=C2` [Comparative Example, (S)-3-Fluoro-1-[(6-methoxy-3-methyl-3,4-dihydronaphthalen-2-yl)methyl]azetidine-3-carboxylic acid], the “S1P5 receptor agonist activity” value at human S1P5 (EDG-8) was “did not have S1P1 and S1P5 receptor agonist activities”. Besides, the “S1P1 receptor agonist activity” value at human S1P1 (EDG-1) was “did not have S1P1 and S1P5 receptor agonist activities”.
Turning to `C[C@H]1Cc2cc(OCCCC(F)(F)F)ccc2C=C1CN1CC(C(=O)O)C1` [Compound I, 1-[[(3S)-3-Methyl-6-(4,4,4-trifluorobutoxy)-3,4-dihydronaphthalen-2-yl]methyl]azetidine-3-carboxylic acid], the “balance … (selectivity)” value at human S1P5 (EDG-8) is “selective agonist activity on the S1P5 receptor”. The Clearance entry in data set [1] is recorded as “low clearance”. Besides, the “effectiveness in EAE model (neurological symptom score)” value in data set [2] is “shows effectiveness”.
Consider `C[C@H]1Cc2cc(OCCCC(F)(F)F)ccc2C=C1CN1CC(C(=O)O)C1` [Example 7, 1-[[(3S)-3-methyl-6-(4,4,4-trifluorobutoxy)-3,4-dihydronaphthalen-2-yl]methyl]azetidine-3-carboxylic acid], for which the “Residual rate (%)” value in data set [3] (setting [4]) was 99.1%.
For `C[C@H]1Cc2cc(OCCCC(F)(F)F)ccc2C=C1CN1CC(C(=O)O)C1.O` [Example 8, hydrate of 1-[[(3S)-3-methyl-6-(4,4,4-trifluorobutoxy)-3,4-dihydronaphthalen-2-yl]methyl]azetidine-3-carboxylic acid], in data set [3] (setting [4]), the “Residual rate (%)” value was 97.8%.
Consider `C[C@H]1Cc2cc(OCCCC(F)(F)F)ccc2C=C1CN1CC(C(=O)O)C1.O=C(O)c1ccccc1` [Example 9, monobenzoate of 1-[[(3S)-3-methyl-6-(4,4,4-trifluorobutoxy)-3,4-dihydronaphthalen-2-yl]methyl]azetidine-3-carboxylic acid], for which the “Residual rate (%)” value in data set [3] (setting [4]) was found to be 97.9%.
Regarding `C[C@H]1Cc2cc(OCCCC(F)(F)F)ccc2C=C1CN1CC(C(=O)O)C1.O=C(O)c1ccc(O)cc1` [Example 10, mono(4-hydroxybenzoate) of 1-[[(3S)-3-methyl-6-(4,4,4-trifluorobutoxy)-3,4-dihydronaphthalen-2-yl]methyl]azetidine-3-carboxylic acid], the “Residual rate (%)” value in data set [3] (setting [4]) is reported as 99.4%; in data set [3] (setting [5]) it was 99.6%.
Regarding `C[C@H]1Cc2cc(OCCCC(F)(F)F)ccc2C=C1CN1CC(C(=O)O)C1.O.O=C(O)c1ccc(O)cc1` [Example 12, hydrate of mono(4-hydroxybenzoate) of 1-[[(3S)-3-methyl-6-(4,4,4-trifluorobutoxy)-3,4-dihydronaphthalen-2-yl]methyl]azetidine-3-carboxylic acid], the “Residual rate (%)” value in data set [3] (setting [4]) worked out at 95.3%.
The same measure, in the same setting: then `C[C@H]1Cc2cc(OCCCC(F)(F)F)ccc2C=C1CN1CC(C(=O)O)C1.C[C@H]1Cc2cc(OCCCC(F)(F)F)ccc2C=C1CN1CC(C(=O)O)C1.O=S(=O)(O)O` [Example 13, hemisulfate of 1-[[(3S)-3-methyl-6-(4,4,4-trifluorobutoxy)-3,4-dihydronaphthalen-2-yl]methyl]azetidine-3-carboxylic acid], with 97.1%.
In the case of `C[C@H]1Cc2cc(OCCCC(F)(F)F)ccc2C=C1CN1CC(C(=O)O)C1.N[C@@H](Cc1c[nH]c2ccccc12)C(=O)O` [Example 14, mono-tryptophan salt of 1-[[(3S)-3-methyl-6-(4,4,4-trifluorobutoxy)-3,4-dihydronaphthalen-2-yl]methyl]azetidine-3-carboxylic acid], the “Residual rate (%)” value in data set [3] (setting [4]) is reported as 99.1%; in data set [3] (setting [5]), 99.6%.
`C[C@H]1Cc2cc(OCCCC(F)(F)F)ccc2C=C1CN1CC(C(=O)O)C1.C[C@H]1Cc2cc(OCCCC(F)(F)F)ccc2C=C1CN1CC(C(=O)O)C1.O=C(O)CCC(=O)O` [Example 15, hemisuccinate of 1-[[(3S)-3-methyl-6-(4,4,4-trifluorobutoxy)-3,4-dihydronaphthalen-2-yl]methyl]azetidine-3-carboxylic acid]: the “Residual rate (%)” value in data set [3] (setting [5]) came out at 99.1%.
Still for that read-out and setting: then `C[C@H]1Cc2cc(OCCCC(F)(F)F)ccc2C=C1CN1CC(C(=O)O)C1.C[C@H]1Cc2cc(OCCCC(F)(F)F)ccc2C=C1CN1CC(C(=O)O)C1.O=C(O)CCCCC(=O)O` [Example 16, hemiadipate of 1-[[(3S)-3-methyl-6-(4,4,4-trifluorobutoxy)-3,4-dihydronaphthalen-2-yl]methyl]azetidine-3-carboxylic acid], with 95.8%.

Source of the values: patent publication US12459890B2, “Salt and crystal form of compound having agonistic activity to S1P5 receptor” (ONO PHARMACEUTICAL CO., LTD., priority 2019, dated 2025).
